Experimental data published in PubChem BioAssay AID256 (DTP/NCI, 2004).
Values joined by “and” are separate entries in the source; they are usually repeats but may differ in a detail not shown here. Equal entries are not always repeated. Toxic doses and inconclusive results are not listed.

Tested on: CD2F1 mice, L1210 leukemia ip, survival T/C
Experiment: NCI In Vivo Anticancer Drug Screen. Data for tumor model L1210 Leukemia (intraperitoneal) in CD2F1 (CDF1) mice
Conditions: higher = longer survival
In short: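 Implant tumor; dose compound or vehicle; measure endpoint in both groups; report treated divided by control.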

[1] = endpoint: mean survival time, dose: 100.0 mg/kg/injection, schedule: Q04DX002 (ip), vehicle: saline with Tween-80
[2] = endpoint: mean survival time, dose: 200.0 mg/kg/injection, schedule: Q04DX002 (ip), vehicle: saline with Tween-80
[3] = endpoint: mean survival time, dose: 100.0 mg/kg/injection, schedule: Q01DX009 (ip), vehicle: saline with Tween-80
[4] = endpoint: mean survival time, dose: 200.0 mg/kg/injection, schedule: Q04DX003 (ip), vehicle: other
[5] = endpoint: mean survival time, dose: 100.0 mg/kg/injection, schedule: Q04DX003 (ip), vehicle: saline with Tween-80
[6] = endpoint: mean survival time, dose: 200.0 mg/kg/injection, schedule: Q04DX003 (ip), vehicle: saline with Tween-80
[7] = endpoint: mean survival time, dose: 400.0 mg/kg/injection, schedule: Q01DX009 (ip), vehicle: saline with Tween-80
[8] = endpoint: mean survival time, dose: 400.0 mg/kg/injection, schedule: Q04DX003 (ip), vehicle: saline with Tween-80
[9] = endpoint: mean survival time, dose: 25.0 mg/kg/injection, schedule: Q01DX009 (ip), vehicle: saline
[10] = endpoint: mean survival time, dose: 50.0 mg/kg/injection, schedule: Q04DX003 (ip), vehicle: saline
[11] = endpoint: mean survival time, dose: 100.0 mg/kg/injection, schedule: Q04DX003 (ip), vehicle: saline
[12] = endpoint: mean survival time, dose: 200.0 mg/kg/injection, schedule: Q01DX009 (ip), vehicle: saline with Tween-80
[13] = endpoint: mean survival time, dose: 200.0 mg/kg/injection, schedule: Q04DX003 (ip), vehicle: saline
[14] = endpoint: mean survival time, dose: 100.0 mg/kg/injection, schedule: Q01DX001 (ip), vehicle: saline

NNC(=O)Nc1nn[nH]n1 was tested, and the T/C [1] was 97 % of control, the T/C [2] was 97 % of control and the T/C (endpoint: mean survival time, dose: 400.0 mg/kg/injection, schedule: Q04DX002 (ip), vehicle: saline with Tween-80) was 94 % of control.
For OC(CC1=NNC(=S)NC1)(C(F)(F)F)C(F)(F)F, the T/C (endpoint: mean survival time, dose: 50.0 mg/kg/injection, schedule: Q01DX009 (ip), vehicle: saline with Tween-80) was 94 % of control and the T/C [3] was 89 % of control.
With CC(=O)N(C)N=Nc1ccc(C)cc1 the T/C (endpoint: mean survival time, dose: 88.0 mg/kg/injection, schedule: Q04DX003 (ip), vehicle: other) was 114 % of control and the T/C [4] was 121 % of control.
For Cc1ccc(NCC2(/N=C/c3ccccc3)OC(CO)C(O)C2O)cc1 (centres undefined), the T/C (endpoint: mean survival time, dose: 100.0 mg/kg/injection, schedule: Q01DX009 (ip), vehicle: Klucel (hydroxypropylcellulose) (HPC)) was 109 % of control, the T/C (endpoint: mean survival time, dose: 177.0 mg/kg/injection, schedule: Q01DX009 (ip), vehicle: saline with Tween-80) was 113 % of control and the T/C (endpoint: mean survival time, dose: 200.0 mg/kg/injection, schedule: Q01DX009 (ip), vehicle: Klucel (hydroxypropylcellulose) (HPC)) was 118 % of control. For the same molecule, the T/C (endpoint: mean survival time, dose: 266.0 mg/kg/injection, schedule: Q01DX009 (ip), vehicle: Klucel (hydroxypropylcellulose) (HPC)) was 120 % of control.
For COc1ccc(-c2[nH]c(=S)[nH]c(=O)c2CCO)cc1, the T/C [3] was 93 % of control, the T/C [5] was 90 % of control and the T/C [6] was 88 % of control. For the same molecule, the T/C [7] was 92 % of control and the T/C [8] was 95 % of control.
CC(=O)OC(C(=O)N(c1ccccc1)c1ccccc1)c1ccccc1 (centres undefined) was tested, and the T/C [5] was 100 % of control, the T/C [6] was 94 % of control and the T/C [8] was 108 % of control.
In the case of COC(=O)Nc1nc2ccc(C3(c4ccc(F)cc4)OCCO3)cc2[nH]1, the T/C (endpoint: mean survival time, dose: 1.56 mg/kg/injection, schedule: Q01DX009 (ip), vehicle: saline) is reported as 96 % of control, the T/C (endpoint: mean survival time, dose: 3.12 mg/kg/injection, schedule: Q01DX009 (ip), vehicle: saline) is reported as 91 % of control and the T/C (endpoint: mean survival time, dose: 6.25 mg/kg/injection, schedule: Q01DX009 (ip), vehicle: saline) is reported as 90 % of control. The T/C (endpoint: mean survival time, dose: 12.5 mg/kg/injection, schedule: Q01DX009 (ip), vehicle: saline with Tween-80) was 104 % of control, the T/C (endpoint: mean survival time, dose: 12.5 mg/kg/injection, schedule: Q01DX009 (ip), vehicle: saline) was 94 % of control and 104 % of control and the T/C (endpoint: mean survival time, dose: 25.0 mg/kg/injection, schedule: Q01DX009 (ip), vehicle: saline with Tween-80) was 106 % of control. For the same molecule, the T/C [9] was 105 % of control, the T/C (endpoint: mean survival time, dose: 40.0 mg/kg/injection, schedule: Q04DX003 (ip), vehicle: saline) was 120 % of control and the T/C [10] was 115 % of control. The T/C (endpoint: mean survival time, dose: 60.0 mg/kg/injection, schedule: Q04DX003 (ip), vehicle: saline) was 151 % of control and 152 % of control, the T/C (endpoint: mean survival time, dose: 80.0 mg/kg/injection, schedule: Q04DX003 (ip), vehicle: saline) was 181 % of control and the T/C [11] was 181 % of control. The T/C (endpoint: mean survival time, dose: 150.0 mg/kg/injection, schedule: Q01DX009 (oral), vehicle: saline) was 156 % of control, the T/C [12] was 87 % of control and the T/C (endpoint: mean survival time, dose: 200.0 mg/kg/injection, schedule: Q01DX009 (oral), vehicle: saline) was 156 % of control.
O=C(O)c1ccco1 was tested, and the T/C [11] was 94 % of control and the T/C [13] was 95 % of control.
For [Cl][Pt+2][Cl].[NH-]CC(O)C[NH-], the T/C (endpoint: median survival time, dose: 5.0 mg/kg/injection, schedule: Q04DX003 (ip), vehicle: saline) was 108 % of control, the T/C (endpoint: median survival time, dose: 10.0 mg/kg/injection, schedule: Q04DX003 (ip), vehicle: saline) was 103 % of control and the T/C (endpoint: median survival time, dose: 20.0 mg/kg/injection, schedule: Q04DX003 (ip), vehicle: saline) was 105 % of control. The T/C (endpoint: median survival time, dose: 40.0 mg/kg/injection, schedule: Q04DX003 (ip), vehicle: saline) was 108 % of control.
With O=C(COc1cc(Cl)c(Cl)cc1Cl)OCCN(CCOC(=O)COc1cc(Cl)c(Cl)cc1Cl)C(=O)COc1ccc(Cl)cc1 the T/C (endpoint: mean survival time, dose: 100.0 mg/kg/injection, schedule: Q04DX003 (ip), vehicle: other) was 93 % of control, the T/C [4] was 96 % of control and the T/C (endpoint: mean survival time, dose: 400.0 mg/kg/injection, schedule: Q04DX003 (ip), vehicle: other) was 107 % of control.
With O=[N+]([O-])c1cc(S(=O)(=O)O)cc([N+](=O)[O-])c1Cl the T/C [9] was 103 % of control, the T/C (endpoint: mean survival time, dose: 50.0 mg/kg/injection, schedule: Q01DX009 (ip), vehicle: saline) was 96 % of control and the T/C (endpoint: mean survival time, dose: 100.0 mg/kg/injection, schedule: Q01DX009 (ip), vehicle: saline) was 98 % of control and 103 % of control.
In the case of N=C(N)SCSC(=N)N, the T/C [11] is reported as 100 % of control and the T/C [13] is reported as 103 % of control.
C[S+](C)(=O)/C=C(\[O-])Nc1ccc(Cl)c(Cl)c1 was tested, and the T/C [5] was 103 % of control, the T/C [6] was 90 % of control and the T/C [8] was 91 % of control.
For CC1CCC2[S][Sn]3([NH]C2C1)[NH]C1CC(C)CCC1[S]3 (centres undefined), the T/C [1] was 106 % of control and the T/C [2] was 111 % of control.
For Nc1nc2c(ncn2C2OC(CO)C(O)C2O)c(=O)[nH]1.Nc1nc2c(ncn2C2OC(CO)C(O)C2O)c(=O)[nH]1.[NH2-].[NH2-].[Pt+2] (centres undefined), the T/C (endpoint: mean survival time, dose: 6.25 mg/kg/injection, schedule: Q01DX009 (ip), vehicle: water) was 102 % of control and 106 % of control, the T/C (endpoint: mean survival time, dose: 12.5 mg/kg/injection, schedule: Q01DX009 (ip), vehicle: water) was 106 % of control and 112 % of control and the T/C (endpoint: mean survival time, dose: 25.0 mg/kg/injection, schedule: Q01DX009 (ip), vehicle: water) was 113 % of control and 124 % of control. For the same molecule, the T/C (endpoint: mean survival time, dose: 50.0 mg/kg/injection, schedule: Q01DX009 (ip), vehicle: water) was 113 % of control and the T/C (endpoint: mean survival time, dose: 100.0 mg/kg/injection, schedule: Q01DX009 (ip), vehicle: water) was 123 % of control.
With CN1CC(C(=O)NC2CCCCC2)CC2c3cccc4[nH]cc(c34)CC21 (centres undefined) the T/C [10] was 96 % of control, the T/C [11] was 92 % of control and the T/C [13] was 102 % of control.
With CC(=O)NC1Cn2c3c(c(COC(N)=O)c2C1O)C(=O)C(Nc1ccccc1)=C(C)C3=O (centres undefined) the T/C (endpoint: mean survival time, dose: 2.08 mg/kg/injection, schedule: Q01DX001 (ip), vehicle: carboxymethylcellulose (CMC)) was 86 % of control, the T/C (endpoint: mean survival time, dose: 3.1 mg/kg/injection, schedule: Q01DX001 (ip), vehicle: carboxymethylcellulose (CMC)) was 98 % of control and the T/C (endpoint: mean survival time, dose: 4.7 mg/kg/injection, schedule: Q01DX001 (ip), vehicle: carboxymethylcellulose (CMC)) was 93 % of control.
For ClC=P(c1ccccc1)(c1ccccc1)c1ccccc1, the T/C [3] was 96 % of control and the T/C [12] was 92 % of control.
CCC(=O)Nc1cccc(OC(=O)NC(C)(C)CC(C)(C)C)c1 was tested, and the T/C (endpoint: mean survival time, dose: 100.0 mg/kg/injection, schedule: Q01DX001 (ip), vehicle: saline with Tween-80) was 98 % of control, the T/C (endpoint: mean survival time, dose: 200.0 mg/kg/injection, schedule: Q01DX001 (ip), vehicle: saline with Tween-80) was 98 % of control and the T/C (endpoint: mean survival time, dose: 400.0 mg/kg/injection, schedule: Q01DX001 (ip), vehicle: saline with Tween-80) was 100 % of control.
CN(Cc1cnc2nc(N)nc(N)c2n1)c1ccc(C(=O)NC(CCC(=O)OC(C)(C)C)C(=O)OC(C)(C)C)cc1 (centres undefined) was tested, and the T/C (endpoint: mean survival time, dose: 1.56 mg/kg/injection, schedule: Q01DX009 (ip), vehicle: saline with Tween-80) was 112 % of control, the T/C (endpoint: mean survival time, dose: 3.12 mg/kg/injection, schedule: Q01DX009 (ip), vehicle: saline with Tween-80) was 121 % of control and the T/C (endpoint: mean survival time, dose: 4.5 mg/kg/injection, schedule: Q01DX009 (ip), vehicle: saline with Tween-80) was 111 % of control.
With CCCCOC(=O)C1C2CCC(O2)C1C(N)=O (centres undefined) the T/C (endpoint: mean survival time, dose: 25.0 mg/kg/injection, schedule: Q04DX002 (ip), vehicle: saline with Tween-80) was 95 % of control and the T/C (endpoint: mean survival time, dose: 50.0 mg/kg/injection, schedule: Q04DX002 (ip), vehicle: saline with Tween-80) was 101 % of control.
O=S(=O)(O)C(O)c1cccnc1 (centres undefined) was tested, and the T/C [3] was 98 % of control, the T/C (endpoint: mean survival time, dose: 100.0 mg/kg/injection, schedule: Q04DX003 (ip), vehicle: saline sonified) was 95 % of control and the T/C [12] was 96 % of control. For the same molecule, the T/C (endpoint: mean survival time, dose: 200.0 mg/kg/injection, schedule: Q04DX003 (ip), vehicle: saline sonified) was 105 % of control, the T/C [7] was 95 % of control and the T/C (endpoint: mean survival time, dose: 400.0 mg/kg/injection, schedule: Q04DX003 (ip), vehicle: saline sonified) was 89 % of control.
For O=NN(CCCl)C(=O)Oc1cc(Cl)c(Cl)cc1Cl, the T/C (endpoint: median survival time, dose: 6.0 mg/kg/injection, schedule: Q01DX009 (ip), vehicle: Klucel (hydroxypropylcellulose) (HPC)) was 106 % of control, the T/C (endpoint: median survival time, dose: 12.0 mg/kg/injection, schedule: Q01DX009 (ip), vehicle: Klucel (hydroxypropylcellulose) (HPC)) was 124 % of control and the T/C (endpoint: median survival time, dose: 12.5 mg/kg/injection, schedule: Q01DX009 (ip), vehicle: Klucel (hydroxypropylcellulose) (HPC)) was 109 % of control. For the same molecule, the T/C (endpoint: median survival time, dose: 50.0 mg/kg/injection, schedule: Q01DX009 (ip), vehicle: Klucel (hydroxypropylcellulose) (HPC)) was 195 % of control.
CSc1cc(C)n2nnnc2n1 was tested, and the T/C [14] was 101 % of control.
With CCOc1cc(/C=N/NC(=O)C(O)c2ccccc2)ccc1O (centres undefined) the T/C [3] was 95 % of control, the T/C [12] was 103 % of control and the T/C [7] was 101 % of control.
For C[N+](C)(C)CCC[n+]1ccc(CCn2ccc3ccccc32)cc1, the T/C [14] was 124 % of control.
